Data published in EP1124440B1, “USE OF […] FOR FOODSTUFF AND COSMETIC MATERIAL” (Aquacal Limited, priority 1998, dated 2000).
Read-outs that look alike come from different tables or passages of the source.

Legend:
[1] = biscuits cooked for exactly eleven minutes
From the text: Four batches of biscuits were made using the following recipe:
(§1) The biscuits were cooked for exactly eleven minutes and then analysed.
(§2) The following parameters were examined: friability, water activity (Aw) and colour.

[2] = water activity; biscuits cooked for exactly eleven minutes
From the text: as §1, §2

[3] = biscuits
Procedure: Colour was measured using LAB values. L. Brightness A. Red B. Yellow
The LAB values of the biscuits were measured using a Minolta colour meter.

[4] = ice-cream; B = Yellow Colour
Procedure: 3. Colour was measured using a Minolta colour meter and the results were expressed using LAB values: L = Lightness A = Red Colour B = Yellow Colour
4. A further batch of ice-cream was made to assess if calcium addition effected the over-run properties of the ice-cream.

## O=C([O-])[O-].[Ca+2] [Calcium Carbonate]
[1]
  Friability: significantly reduced
[2]
  Aw: significantly increased
[3]; A = Red
  A value: significantly reduced
[3]; B = Yellow
  B value: did not effect this value
[3]; L = Brightness
  L value: 72.87
[4]
  B value: significant difference
